This passage reports IC50 results from US11311520B2, “Substituted dihydroimidazopyridinediones as MKNK1 and MKNK2 inhibitors” (Bayer Pharma Aktiengesellschaft, priority 2017, dated 2022).

The term IC50 denotes the concentration at which inhibition is half-maximal.

The assay addresses human full-length MKNK1 (Homo sapiens (Human), UniProt Q9BUB5, T344D). Put plainly: MKNK1 kinase high ATP assay (TR-FRET). The class given is biochemical. Particulars: 2 mM ATP, 15 min preincubation with enzyme, GST-MKNK1 (T344D). Here is the method:
MKNK1 Kinase High ATP Assay
MKNK1-inhibitory activity at high ATP of compounds of the present invention after their preincubation with MKNK1 was quantified employing the TR-FRET-based MKNK1 high ATP assay as described in the following paragraphs.
A recombinant fusion protein of Glutathione-S-Transferase (GST, N-terminally) and human full-length MKNK1 (amino acids 1-424 and T344D of accession number BAA 19885.1), expressed in insect cells using baculovirus expression system and purified via glutathione sepharose affinity chromatography, was purchased from Carna Biosciences (product no 02-145) and used as enzyme. As substrate for the kinase reaction the biotinylated peptide biotin-Ahx-IKKRKLTRRKSLKG (SEQ ID NO: 1) (C-terminus in amide form) was used, which can be purchased e.g. from the company Biosyntan (Berlin-Buch, Germany)
For the assay 50 nL of a 100 fold concentrated solution of the test compound in DMSO was pipetted into a black low volume 384 well microtiter plate (Greiner Bio-One, Frickenhausen, Germany), 2 μL of a solution of MKNK1 in aqueous assay buffer [50 mM HEPES pH 7.5, 5 mM MgCl2, 1.0 mM dithiothreitol, 0.005% (v/v) Nonidet-P40 (Sigma)] was added and the mixture was incubated for […] at 22° C. to allow pre-binding of the test compounds to the enzyme before the start of the kinase reaction. Then the kinase reaction was started by the addition of 3 μL of a solution of adenosine-tri-phosphate (ATP, 3.3 mM=>final conc. in the 5 μL assay volume is 2 mM) and substrate (0.1 μM=>final conc. in the 5 μL assay volume is 0.06 μM) in assay buffer and the resulting mixture was incubated for a reaction time of 30 min at 22° C. The concentration of MKNK1 was adjusted depending of the activity of the enzyme lot and was chosen appropriate to have the assay in the linear range, typical concentrations were in the range of 0.003 μg/mL. The reaction was stopped by the addition of 5 μL of a solution of TR-FRET detection reagents (5 nM streptavidine-XL665 [Cisbio Bioassays, Codolet, France] and 1 nM anti-ribosomal protein S6 (pSer236)-antibody from Invitrogen [#44921G] and 1 nM LANCE EU-W1024 labeled ProteinG [Perkin-Elmer, product no. AD0071]) in an aqueous EDTA-solution (100 mM EDTA, 0.1% (w/v) bovine serum albumin in 50 mM HEPES pH 7.5).
The resulting mixture was incubated for 1 h at 22° C. to allow the formation of complex between the phosphorylated biotinylated peptide and the detection reagents. Subsequently the amount of phosphorylated substrate was evaluated by measurement of the resonance energy transfer from the Eu-chelate to the streptavidine-XL. Therefore, the fluorescence emissions at 620 nm and 665 nm after excitation at 350 nm were measured in a TR-FRET reader, e.g. a Rubystar (BMG Labtechnologies, Offenburg, Germany) or a Viewlux (Perkin-Elmer). The ratio of the emissions at 665 nm and at […] was taken as the measure for the amount of phosphorylated substrate. The data were normalised (enzyme reaction without inhibitor=0% inhibition, all other assay components but no enzyme=100% inhibition).
For orientation: In TR-FRET formats the signal depends on donor and acceptor labels being close together.

Sequence of human full-length MKNK1 (Q9BUB5 other isoform, or with tags, fused parts or gaps T344D): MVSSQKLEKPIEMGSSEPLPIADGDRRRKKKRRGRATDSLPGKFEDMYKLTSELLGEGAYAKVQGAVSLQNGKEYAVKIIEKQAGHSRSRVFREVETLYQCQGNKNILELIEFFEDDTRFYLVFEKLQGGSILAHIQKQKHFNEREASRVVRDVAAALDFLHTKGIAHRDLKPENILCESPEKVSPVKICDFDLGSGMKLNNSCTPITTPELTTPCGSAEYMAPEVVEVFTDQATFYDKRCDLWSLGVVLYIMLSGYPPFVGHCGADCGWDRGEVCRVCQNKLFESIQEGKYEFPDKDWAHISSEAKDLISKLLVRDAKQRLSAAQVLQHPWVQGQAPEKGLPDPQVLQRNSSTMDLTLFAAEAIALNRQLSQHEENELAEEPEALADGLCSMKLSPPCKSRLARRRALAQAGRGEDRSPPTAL

In turn, `COc1ccc2ncnc(Nc3cc(C)c4n(c3=O)C3(CCCCC3)NC4=O)c2c1` [Example 117, 6′-[(6-Methoxyquinazolin-4-yl)amino]-8′-methyl-2′H-spiro[cyclohexane-1,3′-imidazo[1,5-a]pyridine]-1′,5′-dione] came in with an IC50 of 12.5 nM.
Same read-out and setting: to `Cc1cc(Nc2ncnc3c2CN(C(=O)OC(C)(C)C)C3)c(=O)n2c1C(=O)NC21CCCC1` [Example 103, tert-Butyl 4-[(8′-methyl-1′,5′-dioxo-1′,5′-dihydro-2′H-spiro[cyclopentane-1,3′-imidazo[1,5-a]pyridin]-6′-yl)amino]-5,7-dihydro-6H-pyrrolo[3,4-d]pyrimidine-6-carboxylate] belongs 4.7 nM.
Same read-out and setting: to `CCCNC(=O)Nc1ncnc(Nc2cc(C)c3n(c2=O)C2(CCCCC2)NC3=O)n1` [Example 3, 1-{4-[(8′-Methyl-1′,5′-dioxo-1′,5′-dihydro-2′H-spiro[cyclohexane-1,3′-imidazo[1,5-a]pyridin]-6′-yl)amino]-1,3,5-triazin-2-yl}-3-propylurea] belongs 18.8 nM; to `Cc1cc(Nc2ncnc3[nH]ccc23)c(=O)n2c1C(=O)NC21CCSCC1` [Example 196, 8-methyl-6-(7H-pyrrolo[2,3-d]pyrimidin-4-ylamino)-2′,3′,5′,6′-tetrahydro-2H-spiro[imidazo[1,5-a]pyridine-3,4′-thiopyran]-1,5-dione], 0.5 nM.
Regarding `Cc1cc(Nc2ncnc3sccc23)c(=O)n2c1C(=O)NC21CCCC1` [Example 56, 8′-Methyl-6′-(thieno[2,3-d]pyrimidin-4-ylamino)-2′H-spiro[cyclopentane-1,3′-imidazo[1,5-a]pyridine]-1′,5′-dione], the IC50 was found to be 0.1 nM.
Same read-out and setting: to `Cc1cc(Nc2ncnc3sc(C(=O)N4C[C@H]5C[C@@H]4CO5)cc23)c(=O)n2c1C(=O)NC21CCC1` [Example 158, 8′-Methyl-6′-({6-[(1R,4R)-2-oxa-5-azabicyclo[2.2.1]hept-5-ylcarbonyl]thieno[2,3-d]pyrimidin-4-yl}amino)-2′H-spiro[cyclobutane-1,3′-imidazo[1,5-a]pyridine]-1′,5′-dione] belongs 5 nM; to `Cc1cc(Nc2ncnc3c2CN(S(=O)(=O)c2ccccc2)C3)c(=O)n2c1C(=O)NC21CCCCC1` [Example 70, 8′-methyl-6′-{[6-(phenylsulfonyl)-6,7-dihydro-5H-pyrrolo[3,4-d]pyrimidin-4-yl]amino}-2′H-spiro[cyclohexane-1,3′-imidazo[1,5-a]pyridine]-1′,5′-dione], 21.7 nM.
Still for that read-out and setting: to `Cc1cc(Nc2ncnc(NC(=O)C3CC3)n2)c(=O)n2c1C(=O)NC21CCCCC1` [Example 1, N-{4-[(8′-Methyl-1′,5′-dioxo-1′,5′-dihydro-2′H-spiro[cyclohexane-1,3′-imidazo[1,5-a]pyridin]-6′-yl)amino]-1,3,5-triazin-2-yl}cyclopropanecarboxamide] belongs 2.5 nM.
Where the note is “methanesulfonate”, `Cc1cc(Nc2ncnc3[nH]ccc23)c(=O)n2c1C(=O)NC21CCC(F)(F)CC1` [Example 91, 4,4-Difluoro-8′-methyl-6′-(7H-pyrrolo[2,3-d]pyrimidin-4-ylamino)-2′H-spiro[cyclohexane-1,3′-imidazo[1,5-a]pyridine]-1′,5′-dione methanesulfonate] gave an IC50 of 1.1 nM.
With `Cc1cc(Nc2ncnc3sc(C(=O)N4CC(NC(=O)OC(C)(C)C)C4)cc23)c(=O)n2c1C(=O)NC21CCCCC1` [Example 27, tert-Butyl [1-({4-[(8′-methyl-1′,5′-dioxo-1′,5′-dihydro-2′H-spiro[cyclohexane-1,3′-imidazo[1,5-a]pyridin]-6′-yl)amino]thieno[2,3-d]pyrimidin-6-yl}carbonyl)azetidin-3-yl]carbamate], the IC50 was 4 nM.
`Cc1cc(Nc2ncnc3[nH]ccc23)c(=O)n2c1C(=O)N[C@]21CC[C@@](O)(C(F)(F)C(F)(F)F)CC1` [Example 194, (cis)-4-hydroxy-8′-methyl-4-(pentafluoroethyl)-6′-[(7H-pyrrolo[2,3-d]pyrimidin-4-yl)amino]-2′H-spiro[cyclohexane-1,3′-imidazo[1,5-a]pyridine]-1′,5′-dione] yielded an IC50 of 12.2 nM.
The molecule `Cc1cc(Nc2ncnc3sc(C(=O)N4CC[C@@H](N(C)C)C4)cc23)c(=O)n2c1C(=O)NC21CCCC1` [Example 63, 6′-[(6-{[(3R)-3-(Dimethylamino)pyrrolidin-1-yl]carbonyl}thieno[2,3-d]pyrimidin-4-yl)amino]-8′-methyl-2′H-spiro[cyclopentane-1,3′-imidazo[1,5-a]pyridine]-1′,5′-dione] had an IC50 of 3.8 nM.
On the same count and under the same terms, to `COCCN(C)C(=O)c1sc2ncnc(Nc3cc(C)c4n(c3=O)C3(CCCCC3)NC4=O)c2c1C` [Example 18, N-(2-methoxyethyl)-N,5-dimethyl-4-[(8′-methyl-1′,5′-dioxo-1′,5′-dihydro-2′H-spiro[cyclohexane-1,3′-imidazo[1,5-a]pyridin]-6′-yl)amino]thieno[2,3-d]pyrimidine-6-carboxamide] belongs 105 nM; to `Cc1cc(Nc2ncnc3sc(C(=O)N4CC(NC(=O)OC(C)(C)C)C4)cc23)c(=O)n2c1C(=O)NC2(C)C` [Example 139, tert-Butyl [1-({4-[(3,3,8-trimethyl-1,5-dioxo-1,2,3,5-tetrahydroimidazo[1,5-a]pyridin-6-yl)amino]thieno[2,3-d]pyrimidin-6-yl}carbonyl)azetidin-3-yl]carbamate], 24.1 nM.
Same read-out and setting: under `Cc1cc(Nc2ncnc3ccc(F)cc23)c(=O)n2c1C(=O)NC21CCCC1` [Example 185, 6′-[(6-fluoroquinazolin-4-yl)amino]-8′-methyl-2′H-spiro[cyclopentane-1,3′-imidazo[1,5-a]pyridine]-1′,5′-dione] stands 7.9 nM.
The same measure, in the same setting: under `Cc1cc(Nc2ncnc3scnc23)c(=O)n2c1C(=O)NC21CCC(F)(F)CC1` [Example 101, 4,4-Difluoro-8′-methyl-6′-([1,3]thiazolo[5,4-d]pyrimidin-7-ylamino)-2′H-spiro[cyclohexane-1,3′-imidazo[1,5-a]pyridine]-1′,5′-dione] stands 187 nM; under `Cc1cc(Nc2ncnc3sc(C(=O)N(C)CCN(C)C)cc23)c(=O)n2c1C(=O)NC21CCCCC1` [Example 13, N-[2-(Dimethylamino)ethyl]-N-methyl-4-[(8′-methyl-1′,5′-dioxo-1′,5′-dihydro-2′H-spiro[cyclohexane-1,3′-imidazo[1,5-a]pyridin]-6′-yl)amino]thieno[2,3-d]pyrimidine-6-carboxamide], 5.2 nM; under `Cc1cc(Nc2ncnc3oc(C)c(C)c23)c(=O)n2c1C(=O)NC21CCCCC1` [Example 38, 6′-[(5,6-Dimethylfuro[2,3-d]pyrimidin-4-yl)amino]-8′-methyl-2′H-spiro[cyclohexane-1,3′-imidazo[1,5-a]pyridine]-1′,5′-dione], 79.9 nM.
In turn, `CCOC(=O)Cn1cnc2c(Nc3cc(C)c4n(c3=O)C3(CCCCC3)NC4=O)ncnc21` [Example 45, Ethyl {6-[(8′-methyl-1′,5′-dioxo-1′,5′-dihydro-2′H-spiro[cyclohexane-1,3′-imidazo[1,5-a]pyridin]-6′-yl)amino]-9H-purin-9-yl}acetate] displayed an IC50 of 603 nM.
On the same count and under the same terms, under `Cc1cc(Nc2ncnc3[nH]ccc23)c(=O)n2c1C(=O)NC2(C)C` [Example 132, 3,3,8-Trimethyl-6-(7H-pyrrolo[2,3-d]pyrimidin-4-ylamino)-2,3-dihydroimidazo[1,5-a]pyridine-1,5-dione] stands 0.7 nM.
Turning to `Cc1cc(Nc2ncnc3sc(C(=O)N(C)CCN(C)C)cc23)c(=O)n2c1C(=O)NC2(C)C` [Example 138, N-[2-(Dimethylamino)ethyl]-N-methyl-4-[(3,3,8-trimethyl-1,5-dioxo-1,2,3,5-tetrahydroimidazo[1,5-a]pyridin-6-yl)amino]thieno[2,3-d]pyrimidine-6-carboxamide], half-maximal inhibition (IC50) was put at 33.6 nM.
On the same count and under the same terms, to `Cc1cc(Nc2ncnc3[nH]cnc23)c(=O)n2c1C(=O)NC21CCCC1` [Example 67, 8′-methyl-6′-(9H-purin-6-ylamino)-2′H-spiro[cyclopentane-1,3′-imidazo[1,5-a]pyridine]-1′,5′-dione] belongs 0.7 nM.
